A word on the IC50: it is the point on the concentration scale where inhibition reaches its midpoint. What is called Kd is the concentration at which binding is half-saturated. Lower therefore signals a tighter complex.

Structures can show the parent of a compound that is named as a salt. Where two headings read alike, the source gives them in different places.

For series [1], the system named is CM-AS16. In words: cells. Details: CCK-8 anti-proliferation assay in conjunctival melanoma cell lines. As for the experimental part:
(§1) The anti-proliferative activity of our in-house drugs against CM-AS16 cells was assessed using the Cell Counting Kit-8 (CCK-8) assay at a final concentration of 10 μM (Fig. 1A). […] These analogues were Chinese herbal monomers harbouring the same bisbenzylisoquinoline core. […] Fangchinoline harbours an exposed hydroxy group, which is suitable for synthesizing functionalized probes and subsequent target identification. […] Next, we assessed the anti-proliferative activity of fangchinoline against three other CM cell lines obtained from patients with a typical NRAS (CRMM2) or BRAF mutation (CRMM1 and CM2005.1)[26],[27]. […] To determine whether fangchinoline could suppress CM properties in vivo, an immunodeficient NCG mice xenograft model was created by subcutaneous inoculation of CM-AS16 cells. NCG mice comes from knocking out the Prkdc and IL2rg genes in NOD/ShiltJ mice through Crispr Cas9 technology. […] The average tumour volume of the control group was 204 mm^3, which was higher than that of the treated groups (50 mg/kg/day fangchinoline, tumour volume: […] CRMM1, CRMM2 and CM2005.1 were generously provided by Professor Martine J. Jager (Leiden University Medical Center, Leiden, The Netherlands)[47] and CM-AS16 was provided by Professor Renbin Jia (Shanghai Ninth People’s Hospital, Shanghai, China). A375 and HEK293T were obtained from American Type Culture Collection. CM-AS16 and CM2005.1 were maintained in 1640H medium, CRMM1 and CRMM2 were maintained in F12K medium, A375 and HEK293T were maintained in DMEM medium, and MRC5 was maintained in MEM medium. All mediums were supplemented with 10% FBS. Cells were cultured at 37 °C in an incubator, in a humidified atmosphere with 5% CO2, periodically checked for mycoplasma-free and validated by short tandem repeats (STR) DNA analysis at BGI Tech Solutions (Beijing Liuhe) Co., Limited.

The test system of series [2] is CM2005.1. In words: cells. Also noted: CCK-8 anti-proliferation assay in conjunctival melanoma cell lines. As for the experimental part: as §1
The subject of series [3] is CRMM1. Put plainly: cells. Details: CCK-8 anti-proliferation assay in conjunctival melanoma cell lines. How it is done:
as §1

In series [4] the test system is CRMM2. In words: cells. Also noted: CCK-8 anti-proliferation assay in conjunctival melanoma cell lines. As for the experimental part: as §1
Series [5] is described as follows: in vitro. The note with it: human, mrc5 cells. Details: CCK-8 growth inhibition of MRC5 normal fibroblasts (counter-screen). As for the experimental part:
as §1

Series [6] deals with T1, far upstream element binding protein 2 (FUBP2) (Homo sapiens, UniProt Q92945).
T1 construct: gene KHSRP; FUBP2 labelled with enhanced green fluorescent protein, obtained from HEK293T cells transfected with plasmids
T1 sequence (Q92945 2-711): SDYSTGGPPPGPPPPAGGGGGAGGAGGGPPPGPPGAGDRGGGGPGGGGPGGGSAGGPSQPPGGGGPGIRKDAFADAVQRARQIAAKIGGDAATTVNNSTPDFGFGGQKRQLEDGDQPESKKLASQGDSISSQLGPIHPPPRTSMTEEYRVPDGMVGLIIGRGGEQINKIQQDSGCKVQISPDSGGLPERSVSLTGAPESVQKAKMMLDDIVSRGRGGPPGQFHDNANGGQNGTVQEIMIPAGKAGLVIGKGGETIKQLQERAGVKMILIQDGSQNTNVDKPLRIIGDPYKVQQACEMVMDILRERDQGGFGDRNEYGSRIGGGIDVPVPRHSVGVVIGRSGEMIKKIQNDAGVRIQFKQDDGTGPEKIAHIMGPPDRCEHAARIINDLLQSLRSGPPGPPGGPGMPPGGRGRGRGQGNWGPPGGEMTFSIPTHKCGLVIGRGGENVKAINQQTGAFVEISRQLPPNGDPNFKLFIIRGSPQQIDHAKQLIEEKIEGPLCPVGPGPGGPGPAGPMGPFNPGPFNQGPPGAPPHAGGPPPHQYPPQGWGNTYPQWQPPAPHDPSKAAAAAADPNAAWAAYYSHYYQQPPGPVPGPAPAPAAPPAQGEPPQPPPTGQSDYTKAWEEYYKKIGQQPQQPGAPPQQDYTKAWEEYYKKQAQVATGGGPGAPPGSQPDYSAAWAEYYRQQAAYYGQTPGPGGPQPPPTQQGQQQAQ
Put plainly: microscale thermophoresis (MST, Monolith NT.[…]) with EGFP-labelled FUBP2 from transfected HEK293T cells. On the technique in general: Microscale thermophoresis detects binding through changes in fluorescence in a small temperature gradient.

Where [7] appears, read: CM-AS16; read-out: IC50 (μM) CM-AS16.
[8] abbreviates: CM2005.1; read-out: IC50 (μM) CM2005.1.
Setting [9] is: Homo sapiens, CRMM-1; read-out: IC50 (μM) CRMM1.
The mark [10] stands for this setting: Homo sapiens, CRMM-2; read-out: IC50 (μM) CRMM2.

As to `COc1ccc2cc1Oc1ccc(cc1)C[C@H]1c3cc(c(OC)cc3CCN1C)Oc1c(OC)c(OC)cc3c1[C@H](C2)N(C)CC3` [Tetrandrine], the IC50 is 3.2 ± 0.06 µM in series [1] (setting [7]), 9.7 ± 0.07 µM in series [2] (setting [8]), 4.77 ± 0.24 µM in series [3] (setting [9]) and 2.16 ± 0.02 µM in series [4] (setting [10]). Besides, the CC50 in series [5] (read-out: IC50 (μM) MRC5) stood at 5.75 ± 0.11 µM.

On to `COc1ccc2cc1Oc1ccc(cc1)C[C@H]1c3c(cc4c(c3Oc3cc5c(cc3OC)CCN(C)[C@@H]5C2)OCO4)CCN1C` [Cepharanthine], for which the IC50 in series [1] (setting [7]) amounted to 1.63 ± 0.24 µM; in series [2] (setting [8]), 7.44 ± 0.08 µM; in series [3] (setting [9]), 4.69 ± 0.17 µM; in series [4] (setting [10]), 0.792 ± 0.013 µM. Moreover, the CC50 in series [5] (read-out: IC50 (μM) MRC5) turned out to be 8.44 ± 0.54 µM.

For the compound `Cn1cnc2c(F)c(Nc3ccc(Br)cc3F)c(C(=O)NOCCO)cc21` [MEK162], the IC50 is 0.0077 ± 0.0016 µM in series [1] (setting [7]), 0.068 ± 0.008 µM in series [2] (setting [8]), above 50 µM in series [3] (setting [9]) and 0.0136 ± 0.0006 µM in series [4] (setting [10]). Also, the CC50 in series [5] (read-out: IC50 (μM) MRC5) came to 6.32 ± 0.16 µM.

In series [6], `COc1ccc2cc1Oc1ccc(cc1)C[C@H]1c3cc(c(OC)cc3CCN1C)Oc1c(O)c(OC)cc3c1[C@H](C2)N(C)CC3` [fangchinoline] gave a Kd of 246 µM. The IC50 came out at 5.67 ± 0.17 µM in series [1] (setting [7]), 7.4 ± 0.45 µM in series [2] (setting [8]), 2.68 ± 0.07 µM in series [3] (setting [9]) and 3.6 ± 0.05 µM in series [4] (setting [10]). In addition, the CC50 in series [5] (read-out: IC50 (μM) MRC5) is 4.35 ± 0.11 µM.

On to `COc1cc2c3cc1Oc1c(OC)c(OC)cc4c1[C@@H](Cc1cccc(c1)Oc1ccc(c(O)c1)C[C@@H]3N(C)CC2)N(C)CC4` [Berbamine Hydrochloride], for which the IC50 in series [1] (CM-AS16, read-out: IC50 (μM) CM-AS16) came to 8.46 ± 0.22 µM; in series [2] (CM2005.1, read-out: IC50 (μM) CM2005.1) it was 20.2 ± 0.49 µM; in series [3] (Homo sapiens, CRMM-1, read-out: IC50 (μM) CRMM1) it was 8.16 ± 0.13 µM; in series [4] (Homo sapiens, CRMM-2, read-out: IC50 (μM) CRMM2) it was 4.14 ± 0.5 µM. The compound further had a CC50 in series [5] of 9.03 ± 0.22 µM.

Source of the values: article PMC8027391, “Fangchinoline suppresses conjunctival melanoma by directly binding FUBP2 and inhibiting the homologous recombination pathway” (Cell Death & Disease, 2021).
